{"source": "patent US20230085307A1", "about": "“PYRIDAZINONE COMPOUND AND HERBICIDE” (NISSAN CHEMICAL CORPORATION, priority 2019, published 2023)", "key": {"[1]": {"tested_on": "wild oat", "test": "Test Example 5: herbicidal effect by foliage application, plastic box (Table 20, symbol I)", "assay_type": "in vivo, wild oat (Avena fatua)", "settings": "foliage application, 80 g/ha, three weeks after application", "procedure,_shortened": "(§1)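 Plants sown in sterilized diluvial soil and grown 14 days in a greenhouse at 25° C to 30° C, then sprayed on the foliage with the compound's emulsion diluted in water to a predetermined herbicide amount. Injury to weeds and crops scored three weeks after application on a visual rating scale.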"}, "[2]": {"tested_on": "barnyard grass", "test": "Test Example 3: herbicidal effect by foliage application, Wagner pot (Table 18, symbol H)", "assay_type": "in vivo, barnyard grass (Echinochloa crus-galli)", "settings": "amount of applied herbicide 80 g/ha", "procedure,_shortened": "(§2)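 Plants were sown in alluvial soil held under 0.1–0.5 cm standing water and grown 14 days in a greenhouse at 25–30 °C. An emulsifiable formulation, water-diluted to the set dose, was then sprayed onto the foliage, and effects were scored three weeks later using previously defined criteria.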"}, "[3]": {"tested_on": "redroot pigweed", "test": "Test Example 5: herbicidal effect by foliage application, plastic box (Table 20, symbol N)", "assay_type": "in vivo, redroot pigweed (Amaranthus retroflexus)", "settings": "foliage application, 80 g/ha, three weeks after application", "procedure,_shortened": "as §1"}, "[4]": {"tested_on": "lambsquarters", "test": "Test Example 5: herbicidal effect by foliage application, plastic box (Table 20, symbol O)", "assay_type": "in vivo, lambsquarters (Chenopodium album)", "settings": "foliage application, 80 g/ha, three weeks after application", "procedure,_shortened": "as §1"}, "[5]": {"tested_on": "velvetleaf", "test": "Test Example 4: herbicidal effect by soil treatment (Table 19, symbol M)", "assay_type": "in vivo, velvetleaf (Abutilon theophrasti)", "settings": "amount of applied herbicide 80 g/ha", "procedure,_shortened": "(§3)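 Seeds were sown in sterilized diluvial soil and covered with about 1.5 cm of soil. An emulsion formulation diluted with water to a predetermined herbicide amount was sprayed evenly onto the soil surface. Plants grew in a greenhouse at 25° C. to 30° C., and the effect was scored three weeks after application using criteria from an earlier test.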"}, "[6]": {"tested_on": "Italian ryegrass", "test": "Test Example 5: herbicidal effect by foliage application, plastic box (Table 20, symbol K)", "assay_type": "in vivo, Italian ryegrass (Lolium multiflorum)", "settings": "foliage application, 80 g/ha, three weeks after application", "procedure,_shortened": "as §1"}, "[7]": {"tested_on": "Chinese sprangletop", "test": "Test Example 3: herbicidal effect by foliage application, Wagner pot (Table 18, symbol D)", "assay_type": "in vivo, chinese sprangletop (Leptochloa chinensis)", "settings": "amount of applied herbicide 80 g/ha", "procedure,_shortened": "as §2"}, "[8]": {"tested_on": "windgrass", "test": "Test Example 4: herbicidal effect by soil treatment (Table 19, symbol L)", "assay_type": "in vivo, windgrass (Apera spica-venti)", "settings": "amount of applied herbicide 80 g/ha", "procedure,_shortened": "as §3"}, "[9]": {"tested_on": "blackgrass", "test": "Test Example 5: herbicidal effect by foliage application, plastic box (Table 20, symbol J)", "assay_type": "in vivo, blackgrass (Alopecurus myosuroides)", "settings": "foliage application, 80 g/ha, three weeks after application", "procedure,_shortened": "as §1"}, "[10]": {"tested_on": "chickweed", "test": "Test Example 5: herbicidal effect by foliage application, plastic box (Table 20, symbol P)", "assay_type": "in vivo, common chickweed (Stellaria media)", "settings": "foliage application, 80 g/ha, three weeks after application", "procedure,_shortened": "as §1"}, "[11]": {"tested_on": "velvetleaf", "test": "Test Example 5: herbicidal effect by foliage application, plastic box (Table 20, symbol M)", "assay_type": "in vivo, velvetleaf (Abutilon theophrasti)", "settings": "foliage application, 80 g/ha, three weeks after application", "procedure,_shortened": "as §1"}, "[12]": {"tested_on": "southern crabgrass", "test": "Test Example 5: herbicidal effect by foliage application, plastic box (Table 20, symbol F)", "assay_type": "in vivo, southern crabgrass (Digitaria ciliaris)", "settings": "foliage application, 80 g/ha, three weeks after application", "procedure,_shortened": "as §1"}, "[13]": {"tested_on": "wild oat", "test": "Test Example 4: herbicidal effect by soil treatment (Table 19, symbol I)", "assay_type": "in vivo, wild oat (Avena fatua)", "settings": "amount of applied herbicide 80 g/ha", "procedure,_shortened": "as §3"}, "[14]": {"tested_on": "Italian ryegrass", "test": "Test Example 4: herbicidal effect by soil treatment (Table 19, symbol K)", "assay_type": "in vivo, Italian ryegrass (Lolium multiflorum)", "settings": "amount of applied herbicide 80 g/ha", "procedure,_shortened": "as §3"}, "[15]": {"tested_on": "persian speedwell", "test": "Test Example 4: herbicidal effect by soil treatment (Table 19, symbol R)", "assay_type": "in vivo, Persian speedwell (Veronica persica)", "settings": "amount of applied herbicide 80 g/ha", "procedure,_shortened": "as §3"}, "[16]": {"tested_on": "chickweed", "test": "Test Example 4: herbicidal effect by soil treatment (Table 19, symbol P)", "assay_type": "in vivo, common chickweed (Stellaria media)", "settings": "amount of applied herbicide 80 g/ha", "procedure,_shortened": "as §3"}, "[17]": {"tested_on": "rice flat sedge", "test": "Test Example 3: herbicidal effect by foliage application, Wagner pot (Table 18, symbol E)", "assay_type": "in vivo, rice flat sedge (Cyperus iria)", "settings": "amount of applied herbicide 80 g/ha", "procedure,_shortened": "as §2"}, "[18]": {"tested_on": "windgrass", "test": "Test Example 5: herbicidal effect by foliage application, plastic box (Table 20, symbol L)", "assay_type": "in vivo, windgrass (Apera spica-venti)", "settings": "foliage application, 80 g/ha, three weeks after application", "procedure,_shortened": "as §1"}, "[19]": {"tested_on": "lambsquarters", "test": "Test Example 4: herbicidal effect by soil treatment (Table 19, symbol O)", "assay_type": "in vivo, lambsquarters (Chenopodium album)", "settings": "amount of applied herbicide 80 g/ha", "procedure,_shortened": "as §3"}, "[20]": {"tested_on": "barnyard grass", "test": "Test Example 4: herbicidal effect by soil treatment (Table 19, symbol H)", "assay_type": "in vivo, barnyard grass (Echinochloa crus-galli)", "settings": "amount of applied herbicide 80 g/ha", "procedure,_shortened": "as §3"}, "[21]": {"tested_on": "persian speedwell", "test": "Test Example 5: herbicidal effect by foliage application, plastic box (Table 20, symbol R)", "assay_type": "in vivo, Persian speedwell (Veronica persica)", "settings": "foliage application, 80 g/ha, three weeks after application", "procedure,_shortened": "as §1"}, "[22]": {"tested_on": "blackgrass", "test": "Test Example 4: herbicidal effect by soil treatment (Table 19, symbol J)", "assay_type": "in vivo, blackgrass (Alopecurus myosuroides)", "settings": "amount of applied herbicide 80 g/ha", "procedure,_shortened": "as §3"}, "[23]": {"tested_on": "green foxtail", "test": "Test Example 5: herbicidal effect by foliage application, plastic box (Table 20, symbol G)", "assay_type": "in vivo, green foxtail (Setaria viridis)", "settings": "foliage application, 80 g/ha, three weeks after application", "procedure,_shortened": "as §1"}, "[24]": {"tested_on": "redroot pigweed", "test": "Test Example 4: herbicidal effect by soil treatment (Table 19, symbol N)", "assay_type": "in vivo, redroot pigweed (Amaranthus retroflexus)", "settings": "amount of applied herbicide 80 g/ha", "procedure,_shortened": "as §3"}, "[25]": {"tested_on": "green foxtail", "test": "Test Example 4: herbicidal effect by soil treatment (Table 19, symbol G)", "assay_type": "in vivo, green foxtail (Setaria viridis)", "settings": "amount of applied herbicide 80 g/ha", "procedure,_shortened": "as §3"}, "[26]": {"tested_on": "southern crabgrass", "test": "Test Example 4: herbicidal effect by soil treatment (Table 19, symbol F)", "assay_type": "in vivo, southern crabgrass (Digitaria ciliaris)", "settings": "amount of applied herbicide 80 g/ha", "procedure,_shortened": "as §3"}, "[27]": {"tested_on": "barnyard grass", "test": "Test Example 5: herbicidal effect by foliage application, plastic box (Table 20, symbol H)", "assay_type": "in vivo, barnyard grass (Echinochloa crus-galli)", "settings": "foliage application, 80 g/ha, three weeks after application", "procedure,_shortened": "as §1"}}}
{"smiles": "CCc1nn(C)c(=O)c(-c2c(-c3ccc(C(F)(F)F)cc3)sc3ccc(F)cc23)c1O", "note": "[2-410]", "values": [{"measurement": "I: wild oat, herbicidal effect grade", "setting": "[1]", "value": "0 (Herbicidal rate of 5% or less (almost no effect))"}, {"measurement": "herbicidal effect on H: barnyard grass", "setting": "[2]", "value": "4 (Herbicidal rate of 70% or more and less than 90%)"}, {"measurement": "N: redroot pigweed, herbicidal effect grade", "setting": "[3]", "value": "3 (Herbicidal rate of 40% or more and less than 70%)"}, {"measurement": "O: lambsquarters, herbicidal effect grade", "setting": "[4]", "value": "3 (Herbicidal rate of 40% or more and less than 70%)"}, {"measurement": "herbicidal effect, M: velvetleaf", "setting": "[5]", "value": "0 (Herbicidal rate of 5% or less (almost no effect))"}, {"measurement": "K: Italian ryegrass, herbicidal effect grade", "setting": "[6]", "value": "0 (Herbicidal rate of 5% or less (almost no effect))"}, {"measurement": "herbicidal effect on D: Chinese sprangletop", "setting": "[7]", "value": "0 (Herbicidal rate of 5% or less (almost no effect))"}, {"measurement": "herbicidal effect, L: windgrass", "setting": "[8]", "value": "0 (Herbicidal rate of 5% or less (almost no effect))"}, {"measurement": "J: blackgrass, herbicidal effect grade", "setting": "[9]", "value": "0 (Herbicidal rate of 5% or less (almost no effect))"}, {"measurement": "P: chickweed, herbicidal effect grade", "setting": "[10]", "value": "4 (Herbicidal rate of 70% or more and less than 90%)"}, {"measurement": "M: velvetleaf, herbicidal effect grade", "setting": "[11]", "value": "1 (Herbicidal rate of 5% or more and less than 20%)"}, {"measurement": "F: southern crabgrass, herbicidal effect grade", "setting": "[12]", "value": "0 (Herbicidal rate of 5% or less (almost no effect))"}, {"measurement": "herbicidal effect, I: wild oat", "setting": "[13]", "value": "0 (Herbicidal rate of 5% or less (almost no effect))"}, {"measurement": "herbicidal effect, K: Italian ryegrass", "setting": "[14]", "value": "0 (Herbicidal rate of 5% or less (almost no effect))"}, {"measurement": "herbicidal effect, R: persian speedwell", "setting": "[15]", "value": "0 (Herbicidal rate of 5% or less (almost no effect))"}, {"measurement": "herbicidal effect, P: chickweed", "setting": "[16]", "value": "0 (Herbicidal rate of 5% or less (almost no effect))"}, {"measurement": "herbicidal effect on E: rice flat sedge", "setting": "[17]", "value": "1 (Herbicidal rate of 5% or more and less than 20%)"}, {"measurement": "L: windgrass, herbicidal effect grade", "setting": "[18]", "value": "0 (Herbicidal rate of 5% or less (almost no effect))"}, {"measurement": "herbicidal effect, O: lambsquarters", "setting": "[19]", "value": "1 (Herbicidal rate of 5% or more and less than 20%)"}, {"measurement": "herbicidal effect, H: barnyard grass", "setting": "[20]", "value": "0 (Herbicidal rate of 5% or less (almost no effect))"}, {"measurement": "R: persian speedwell, herbicidal effect grade", "setting": "[21]", "value": "4 (Herbicidal rate of 70% or more and less than 90%)"}, {"measurement": "herbicidal effect, J: blackgrass", "setting": "[22]", "value": "0 (Herbicidal rate of 5% or less (almost no effect))"}, {"measurement": "G: green foxtail, herbicidal effect grade", "setting": "[23]", "value": "2 (Herbicidal rate of 20% or more and less than 40%)"}, {"measurement": "herbicidal effect, N: redroot pigweed", "setting": "[24]", "value": "3 (Herbicidal rate of 40% or more and less than 70%)"}, {"measurement": "herbicidal effect, G: green foxtail", "setting": "[25]", "value": "1 (Herbicidal rate of 5% or more and less than 20%)"}, {"measurement": "herbicidal effect, F: southern crabgrass", "setting": "[26]", "value": "0 (Herbicidal rate of 5% or less (almost no effect))"}, {"measurement": "H: barnyard grass, herbicidal effect grade", "setting": "[27]", "value": "3 (Herbicidal rate of 40% or more and less than 70%)"}]}
